Assay results published in PubChem BioAssay (NCI).
Where “and” joins values, the source holds several entries; their conditions need not be identical. Equal values may be shown once.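 The compound was tested at five concentrations on cells cultured in 96-well plates, with a 48-hour exposure period. GI50 = concentration required for 50% inhibition of growth. The concentration for full growth arrest is given as TGI.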

How the values were obtained:
Test in all cases: NCI tumour cell line growth inhibition, 48 h
[1] = system: NCI-H23 lung
[2] = system: HOP-92 NSCLC
[3] = system: A549 NSCLC
[4] = system: SK-MEL-28 melanoma
[5] = system: NCI-H522 lung
[6] = system: SK-OV-3 ovarian
[7] = system: TK-10 renal
[8] = system: RXF 393 renal
[9] = system: HOP-18 NSCLC
[10] = system: 786-0 renal
[11] = system: UACC-257 melanoma
[12] = system: SNB-75 CNS
[13] = system: CAKI-1 renal
[14] = system: LOX IMVI melanoma
[15] = system: DMS 273 small cell lung
[16] = system: U251 CNS
[17] = system: COLO 205 colon
[18] = system: A498 renal
[19] = system: HCT-116 colon
[20] = system: SR leukemia
[21] = system: HL-60(TB) leukemia
[22] = system: OVCAR-5 ovarian
[23] = system: HT29 colon
[24] = system: NCI-H460 lung
[25] = system: RXF-631 renal
[26] = system: LXFL 529 NSCLC
[27] = system: DMS 114 small cell lung
[28] = system: OVCAR-4 ovarian
[29] = system: SNB-19 CNS
[30] = system: RPMI-8226 leukemia
[31] = system: KM12 colon
[32] = system: SK-MEL-5 melanoma
[33] = system: KM20L2 colon
[34] = system: ACHN renal
[35] = system: SK-MEL-2 melanoma
[36] = system: HCT-15 colon
[37] = system: SW-620 colon
[38] = system: DLD-1 colon
[39] = system: SF-295 CNS
[40] = system: SF-268 CNS
[41] = system: NCI-H226 lung
[42] = system: MDA-MB-231 breast
[43] = system: IGROV1 ovarian
[44] = system: M19-MEL melanoma
[45] = system: MCF7 breast
[46] = system: M14 melanoma
[47] = system: MDA-MB-435
[48] = system: UACC-62 melanoma
[49] = system: PC-3 prostate
[50] = system: SNB-78 CNS
[51] = system: OVCAR-3 ovarian
[52] = system: MALME-3M melanoma
[53] = system: SF-539 CNS
[54] = system: CCRF-CEM leukemia
[55] = system: NCI/ADR-RES ovarian
[56] = system: HOP-62 NSCLC
[57] = system: EKVX NSCLC
[58] = system: OVCAR-8 ovarian
[59] = system: K-562 leukemia
[60] = system: HS 578T breast
[61] = system: MDA-N
[62] = system: UO-31 renal
[63] = system: DU-145 prostate
[64] = system: HCC-2998 colon

CN1NC(c2ccc(Cl)cc2)=C(C#N)C(=O)CC1c1ccccc1 (stereo not given)
TGI [1]: > 100 µM
TGI [2]: > 100 µM
TGI [3]: > 100 µM
TGI [4]: > 100 µM
TGI [5]: > 100 µM
TGI [6]: > 100 µM
TGI [7]: > 100 µM
TGI [8]: > 100 µM
TGI [9]: > 100 µM
TGI [10]: > 100 µM
TGI [11]: > 100 µM
TGI [12]: > 100 µM
TGI [13]: > 100 µM
TGI [14]: > 100 µM
TGI [15]: > 100 µM
TGI [16]: > 100 µM
TGI [17]: > 100 µM
TGI [18]: > 100 µM
TGI [19]: > 100 µM
TGI [20]: > 100 µM
TGI [21]: > 100 µM
TGI [22]: > 100 µM
TGI [23]: > 100 µM
TGI [24]: > 100 µM
TGI [25]: > 100 µM
TGI [26]: > 100 µM
TGI [27]: > 100 µM
TGI [28]: > 100 µM
TGI [29]: > 100 µM
TGI [30]: > 100 µM
TGI [31]: > 100 µM
TGI [32]: > 100 µM
TGI [33]: > 100 µM
TGI [34]: > 100 µM
TGI [35]: > 100 µM
TGI [36]: > 100 µM
TGI [37]: > 100 µM
TGI [38]: > 100 µM
TGI [39]: > 100 µM
TGI [40]: > 100 µM

C/C=C/C=C/c1cc2cc3c(c(O)c2c(=O)[nH]1)C1(CC3)C(O)=c2c(=O)c3c(=O)cc(OC)c(=O)c=3c(=O)c2=C1O (stereo not given)
TGI [1]: 10.1 µM and 8.27 µM
GI50 [41]: 0.23 µM and 0.895 µM
TGI [41]: 3.71 µM and 8.42 µM
GI50 [2]: 0.415 µM
TGI [2]: 2.28 µM
GI50 [3]: 0.183 µM and 1.4 µM
TGI [3]: 4.69 µM and 13.6 µM
TGI [42]: 4.15 µM
TGI [4]: 4.93 µM and 20.1 µM
TGI [6]: 16 µM and 8.75 µM
TGI [43]: 10.6 µM and 15.3 µM
TGI [7]: 4.13 µM and 16.4 µM
GI50 [8]: 0.622 µM and 3.36 µM
TGI [8]: 3.13 µM and 10.4 µM
TGI [44]: 13 µM
TGI [45]: 0.215 µM
TGI [9]: 7.47 µM
GI50 [10]: 0.41 µM and 1.91 µM
TGI [10]: 4.37 µM and 8.39 µM
GI50 [46]: 0.315 µM and 0.977 µM
TGI [46]: 3.24 µM and 9.06 µM
TGI [11]: 1.87 µM and 6.45 µM
GI50 [12]: 0.0567 µM and 0.545 µM
TGI [12]: 0.511 µM and 1.72 µM
TGI [47]: 10.8 µM
GI50 [14]: 1.27 µM
TGI [14]: 9.5 µM
TGI [15]: 7.82 µM
TGI [16]: 0.851 µM and 5.59 µM
TGI [17]: 1.23 µM and 6.92 µM
TGI [48]: 4.34 µM and 14.7 µM
TGI [49]: 0.654 µM
TGI [50]: > 56.7 µM
GI50 [21]: 0.669 µM
TGI [21]: 3.95 µM
GI50 [51]: 0.2 µM and 1.7 µM
TGI [51]: 1.37 µM and 8.57 µM
TGI [52]: 2.19 µM and 12.9 µM
TGI [23]: 1.37 µM and 13.5 µM
GI50 [24]: 0.192 µM and 0.985 µM
TGI [24]: 15.6 µM and 12 µM
TGI [25]: > 100 µM
TGI [26]: 4.56 µM
TGI [27]: 4.83 µM
GI50 [53]: 0.363 µM and 2.33 µM
TGI [53]: 2.48 µM and 10.6 µM
TGI [54]: 1.13 µM and 11.2 µM
TGI [55]: 37.9 µM
GI50 [56]: 0.327 µM and 1.15 µM
TGI [56]: 4.49 µM and 8.28 µM
GI50 [28]: 0.311 µM and 1.08 µM
TGI [28]: 11.3 µM and 8.37 µM
TGI [29]: 14.5 µM and 13.9 µM
TGI [30]: 0.678 µM and 2.2 µM
TGI [31]: 16.5 µM
GI50 [57]: 0.188 µM and 1.12 µM
TGI [57]: 3 µM and 12.2 µM
TGI [33]: 10.9 µM
TGI [34]: 1.7 µM and 16.5 µM
GI50 [35]: 0.249 µM and 0.885 µM
TGI [35]: 14.2 µM and 4.86 µM
GI50 [58]: 0.145 µM and 0.902 µM
TGI [58]: 5.15 µM and 15.5 µM
TGI [59]: > 38.4 µM
TGI [60]: 26.7 µM
TGI [36]: 3.68 µM and 15.1 µM
TGI [61]: 11.9 µM
GI50 [62]: 0.17 µM and 1.37 µM
TGI [62]: 16.3 µM and 9.83 µM
TGI [63]: 15.8 µM
TGI [37]: 1.47 µM and 13 µM
TGI [38]: 17.9 µM
TGI [39]: 2.91 µM and 8.02 µM
TGI [40]: 17.6 µM and 40.3 µM
TGI [64]: 1.33 µM and 11.3 µM
